Measurements taken from article PMC9402538, “Rational design of a sensitivity-enhanced tracer for discovering efficient APC–Asef inhibitors” (Nature Communications, 2022).
Several values for one entry are separate records, joined by “and”; a condition that tells them apart may be missing. Identical values can stand only once. Like-named read-outs stand apart in the source and are kept apart here. Where a SMILES comes first, the peptide text is derived from it. [ ]: non-standard residue; d: D form. The star is where a group is joined. Adamantane1carbonyl = O=C(C12CC3CC(CC(C3)C1)C2)*; Bpa = N[C@@H](Cc1ccc(C(=O)c2ccccc2)cc1)C(=O)O; Thiophene2carbonyl = O=C(c1cccs1)*; Bz = O=C(c1ccccc1)*

What was measured:
APC (303–739) = molecular target: T1, APC (303–739) (Homo sapiens, UniProt P25054); experiment: FP competitive assay using tracer 7; format: binding; conditions: for FP(mp): Tracer 7, replicate wells
T1 sequence (P25054 303-739): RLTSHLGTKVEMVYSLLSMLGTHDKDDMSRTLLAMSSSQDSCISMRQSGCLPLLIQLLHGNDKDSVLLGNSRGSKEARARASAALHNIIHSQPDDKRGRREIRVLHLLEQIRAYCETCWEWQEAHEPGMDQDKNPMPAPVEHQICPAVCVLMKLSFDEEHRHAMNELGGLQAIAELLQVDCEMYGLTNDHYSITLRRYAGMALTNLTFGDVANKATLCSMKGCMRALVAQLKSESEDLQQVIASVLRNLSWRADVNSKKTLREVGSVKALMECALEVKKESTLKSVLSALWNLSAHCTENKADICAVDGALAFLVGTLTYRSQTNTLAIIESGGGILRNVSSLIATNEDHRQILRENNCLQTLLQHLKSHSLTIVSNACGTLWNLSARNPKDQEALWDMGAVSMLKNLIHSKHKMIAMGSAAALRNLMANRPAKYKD
Method: (§1) FITC-labeled tracer peptides were obtained from Changzhou Kanglong Biotech Ltd. (Changzhou, Jiangsu, China). […]. The FP signal changes upon tracer binding were measured after 1.5 h of incubation using a Synergy neo microplate reader (BioTek Instruments, Inc.) and plotted against the protein concentration. The corresponding EC50 values were generated by fitting the curves with a nonlinear regression model. […]. To make a working solution, APC (303–739) was diluted in FP buffer (50 mM HEPES, pH 7.5, 300 mM NaCl, 1 mM EDTA, 1 mM DTT). The diluted APC protein (91 μL) was combined with a serial dilution of peptides (4 μL) and incubated at room temperature for 1 h, followed by the addition of 5 μL of 400 nM tracer 7. The FP signals were measured after 1.5 h of incubation at room temperature using a Synergy neo microplate reader. Three controls were included on each plate, i.e., blank (without protein and tracer), 100% inhibition (free tracer only), and 0% inhibition (protein/tracer complex only) controls. All experiments were performed in triplicate. The IC50 values of peptides were calculated by nonlinear regression analysis using GraphPad Prism 7.0 software.

APC = molecular target: T2, APC (Homo sapiens, UniProt P25054); experiment: FP competitive assay using tracer 1; format: binding; conditions: for FP(mp): Tracer 1, triplicate raw readings
T2 sequence (P25054 303-739): T1 sequence (P25054 303-739)
Method: In our previous study, we established an FP assay for screening APC–Asef inhibitors using FITC-labeled tracer 1 (Ac–^176[…][FITC]^195–NH2)[16]. […]. However, their Kd values measured by isothermal titration calorimetry (ITC) actually vary up to more than 20 times[16],[17]. […].
as §1, with “The diluted APC protein (91 μL) was combined with a serial dilution of peptides (4 μL) and incubated at room temperature for 1 h, followed by the addition of 5 μL of 400 nM tracer 7.” left out

[1] = IC50, Tracer 7, Supplementary Table 4

`CC(C)C[C@H](NC(=O)[C@H](CO)NC(=O)[C@H](CCC(=O)O)NC(=O)CNC(=O)[C@H](C)NC(=O)c1ccccc1)C(=O)N[C@@H](Cc1c[nH]c2ccccc12)C(=O)N[C@@H](CCC(=O)O)C(N)=O` [MAI-452] (Bz-AGESLWE-NH2) was tested, and the IC50 (APC (303–739); [1]) was 0.17 ± 0.01 µM and the IC50 (APC) was 440 ± 150 nM.

`CC(C)C[C@H](NC(=O)[C@H](CO)NC(=O)[C@H](CCC(=O)O)NC(=O)CNC(=O)[C@H](C)NC(=O)c1ccccc1)C(=O)N[C@@H](Cc1ccc(O)cc1)C(=O)N[C@@H](Cc1ccc(C(=O)c2ccccc2)cc1)C(N)=O` [MAI-457] (Bz-AGESLY[Bpa]-NH2) showed an IC50 (APC) of 590 ± 200 nM.

With `C[C@H](NC(=O)c1ccccc1)C(=O)NCC(=O)N[C@@H](CCC(=O)O)C(=O)N[C@@H](CO)C(=O)N[C@@H](Cc1ccc(O)cc1)C(=O)N[C@@H](Cc1ccc(O)cc1)C(=O)N[C@@H](CCC(=O)O)C(N)=O` [MAI-458] (Bz-AGESYYE-NH2) the IC50 (APC (303–739); [1]) was 0.9 ± 0.03 µM and the IC50 (APC) was 590 ± 140 nM.

With `CC(C)C[C@H](NC(=O)[C@H](CO)NC(=O)[C@H](CCC(=O)O)NC(=O)CNC(=O)[C@H](C)NC(=O)c1ccccc1)C(=O)N[C@@H](Cc1ccc(O)cc1)C(N)=O` [MAI-463] (Bz-AGESLY-NH2) the IC50 (APC (303–739); [1]) was 1.3 ± 0.05 µM and the IC50 (APC) was 730 ± 150 nM.

`CC(C)C[C@H](NC(=O)[C@H](CO)NC(=O)[C@H](CCC(=O)O)NC(=O)CNC(=O)[C@H](C)NC(=O)c1ccccc1)C(=O)N[C@@H](Cc1ccc(O)cc1)C(=O)N[C@H](CCC(=O)O)C(N)=O` [MAI-465] (Bz-AGESLY[dE]-NH2) showed an IC50 (APC) of 750 ± 150 nM.

In the case of `CC(C)C[C@H](NC(=O)[C@H](CO)NC(=O)[C@H](CCC(=O)O)NC(=O)CNC(=O)[C@H](C)NC(=O)C12CC3CC(CC(C3)C1)C2)C(=O)N[C@@H](Cc1ccc(O)cc1)C(=O)N[C@@H](CCC(=O)O)C(N)=O` [MAI-505] (Adamantane1carbonyl-AGESLYE-NH2), the IC50 (APC (303–739); Repeat 1, Table 3 source data, read-out: IC50(μM) Repeat 1) is reported as 1.57 µM, the IC50 (APC (303–739); Repeat 2, Table 3 source data, read-out: IC50(μM) Repeat 2) is reported as 1.73 µM and the IC50 (APC (303–739); Repeat 3, Table 3 source data, read-out: IC50(μM) Repeat 3) is reported as 1.57 µM. For the same compound, the “FP(mp)” value (APC (303–739); Conc. 0.0061 μM) was 310 mp and 307 mp and 309 mp, the “FP(mp)” value (APC (303–739); Conc. 0.0122 μM) was 303 mp and 302 mp and 307 mp and the “FP(mp)” value (APC (303–739); Conc. 0.0244 μM) was 307 mp and 305 mp and 308 mp. The “FP(mp)” value (APC (303–739); Conc. 0.05 μM) was 302 mp and 304 mp and 307 mp, the “FP(mp)” value (APC (303–739); Conc. 0.10 μM) was 294 mp and 293 mp and 295 mp and the “FP(mp)” value (APC (303–739); Conc. 0.20 μM) was 282 mp (2×) and 276 mp. The “FP(mp)” value (APC (303–739); Conc. 0.39 μM) was 256 mp and 254 mp and 252 mp, the “FP(mp)” value (APC (303–739); Conc. 0.78 μM) was 224 mp and 222 mp and 229 mp and the “FP(mp)” value (APC (303–739); Conc. 1.56 μM) was 180 mp and 186 mp and 189 mp. The “FP(mp)” value (APC (303–739); Conc. 3.13 μM) was 136 mp and 134 mp and 137 mp, the “FP(mp)” value (APC (303–739); Conc. 6.25 μM) was 106 mp (2×) and 108 mp and the “FP(mp)” value (APC (303–739); Conc. 12.50 μM) was 85 mp and 86 mp and 89 mp. For the same compound, the “FP(mp)” value (APC (303–739); Conc. 25.00 μM) was 67 mp and 68 mp and 71 mp, the “FP(mp)” value (APC (303–739); Conc. 50.00 μM) was 57 mp and 60 mp and 59 mp and the IC50 (APC (303–739); mean of 3 repeats, Table 3 source data, read-out: IC50(μM) mean) was 1.62 µM. For the same compound, the IC50 (APC; Supplementary Table 4, read-out: IC50, Tracer 1) was 440 ± 120 nM, the “FP(mp)” value (APC; Conc. 0.05 μM) was 181 mp and the “FP(mp)” value (APC; Conc. 0.10 μM) was 177 mp and 182 mp and 179 mp. The “FP(mp)” value (APC; Conc. 0.20 μM) was 161 mp and 172 mp and 174 mp, the “FP(mp)” value (APC; Conc. 0.39 μM) was 139 mp and 163 mp and 161 mp and the “FP(mp)” value (APC; Conc. 0.78 μM) was 68 mp and 100 mp and 109 mp. The “FP(mp)” value (APC; Conc. 1.56 μM) was 56 mp and 64 mp and 68 mp, the “FP(mp)” value (APC; Conc. 3.13 μM) was 57 mp and 55 mp and 56 mp and the “FP(mp)” value (APC; Conc. 6.25 μM) was 52 mp and 51 mp. The “FP(mp)” value (APC; Conc. 12.50 μM) was 51 mp and 49 mp and 50 mp, the “FP(mp)” value (APC; Conc. 25.00 μM) was 47 mp and 50 mp and the “FP(mp)” value (APC; Conc. 50.00 μM) was 49 mp and 51 mp. The “FP(mp)” value (APC; Conc. 100.00 μM) was 50 mp and 48 mp, the “FP(mp)” value (APC; Conc. 200.00 μM) was 50 mp and 51 mp and the “FP(mp)” value (APC; Conc. 400.00 μM) was 50 mp and 49 mp.

`CC(C)C[C@H](NC(=O)[C@H](CO)NC(=O)[C@H](CCC(=O)O)NC(=O)CNC(=O)[C@H](C)NC(=O)c1cccs1)C(=O)N[C@@H](Cc1ccc(O)cc1)C(=O)N[C@@H](CCC(=O)O)C(N)=O` [MAI-507] (Thiophene2carbonyl-AGESLYE-NH2) gave an IC50 (APC (303–739); IC50(μM) Repeat 1, Repeat 1, Table 3 source data) of 0.173 µM, an IC50 (APC (303–739); IC50(μM) Repeat 2, Repeat 2, Table 3 source data) of 0.162 µM and an IC50 (APC (303–739); IC50(μM) Repeat 3, Repeat 3, Table 3 source data) of 0.175 µM. The IC50 (APC (303–739); IC50(μM) mean, mean of 3 repeats, Table 3 source data) was 0.17 µM, the IC50 (APC (303–739); IC50 ± SD, tracer 7, APC 25 nM, average of three independent experiments) was 0.17 ± 0.007 µM and the “FP(mp)” value (APC (303–739); Conc. 0.0061 μM) was 306 mp and 304 mp and 305 mp. For the same compound, the “FP(mp)” value (APC (303–739); Conc. 0.0122 μM) was 299 mp and 301 mp (2×), the “FP(mp)” value (APC (303–739); Conc. 0.0244 μM) was 278 mp and 279 mp and 280 mp and the “FP(mp)” value (APC (303–739); Conc. 0.05 μM) was 256 mp (2×) and 257 mp. For the same compound, the “FP(mp)” value (APC (303–739); Conc. 0.10 μM) was 216 mp and 219 mp (2×), the “FP(mp)” value (APC (303–739); Conc. 0.20 μM) was 178 mp (2×) and 173 mp and the “FP(mp)” value (APC (303–739); Conc. 0.39 μM) was 138 mp and 133 mp and 136 mp. For the same compound, the “FP(mp)” value (APC (303–739); Conc. 0.78 μM) was 107 mp and 99 mp and 101 mp, the “FP(mp)” value (APC (303–739); Conc. 1.56 μM) was 89 mp and 77 mp and 80 mp and the “FP(mp)” value (APC (303–739); Conc. 3.13 μM) was 75 mp and 72 mp (2×). For the same compound, the “FP(mp)” value (APC (303–739); Conc. 6.25 μM) was 59 mp and 54 mp and 58 mp, the “FP(mp)” value (APC (303–739); Conc. 12.50 μM) was 60 mp (2×) and 54 mp and the “FP(mp)” value (APC (303–739); Conc. 25.00 μM) was 54 mp and 51 mp and 52 mp. The “FP(mp)” value (APC (303–739); Conc. 50.00 μM) was 57 mp (2×) and 54 mp, the IC50 (APC) was 340 ± 120 nM and the “FP(mp)” value (APC; Conc. 0.05 μM) was 180 mp and 182 mp. The “FP(mp)” value (APC; Conc. 0.10 μM) was 173 mp and 180 mp and 179 mp, the “FP(mp)” value (APC; Conc. 0.20 μM) was 168 mp and 169 mp and 173 mp and the “FP(mp)” value (APC; Conc. 0.39 μM) was 130 mp and 156 mp and 153 mp. The “FP(mp)” value (APC; Conc. 0.78 μM) was 56 mp and 61 mp and 98 mp, the “FP(mp)” value (APC; Conc. 1.56 μM) was 53 mp and 54 mp and 52 mp and the “FP(mp)” value (APC; Conc. 3.13 μM) was 53 mp and 50 mp and 52 mp. The “FP(mp)” value (APC; Conc. 6.25 μM) was 50 mp and 51 mp, the “FP(mp)” value (APC; Conc. 12.50 μM) was 50 mp and 47 mp and 48 mp and the “FP(mp)” value (APC; Conc. 25.00 μM) was 51 mp and 47 mp and 48 mp. The “FP(mp)” value (APC; Conc. 50.00 μM) was 49 mp and 47 mp and 48 mp, the “FP(mp)” value (APC; Conc. 100.00 μM) was 48 mp and 47 mp and the “FP(mp)” value (APC; Conc. 200.00 μM) was 48 mp. For the same compound, the “FP(mp)” value (APC; Conc. 400.00 μM) was 49 mp and 48 mp.
